Source: patent US9757375B2, “Compounds that inhibit human DNA ligases and methods of treating cancer” (University of Maryland, Baltimore, priority 2007, dated 2017)
Like-named read-outs stand apart in the source and are kept apart here. Marks after values point to notes of the source that are not given here.

Assays:
human DNA ligase IV = human DNA ligase IV (Homo sapiens, UniProt P49917); assay: High-throughput fluorescence-based DNA joining (ligation) assay; type: biochemical; settings: 100 μM; for inhibition at 100 µM: read-out: % of inhibition @ 100 μM (Helen's data) hLigIV
Chain of human DNA ligase IV (P49917 whole entry): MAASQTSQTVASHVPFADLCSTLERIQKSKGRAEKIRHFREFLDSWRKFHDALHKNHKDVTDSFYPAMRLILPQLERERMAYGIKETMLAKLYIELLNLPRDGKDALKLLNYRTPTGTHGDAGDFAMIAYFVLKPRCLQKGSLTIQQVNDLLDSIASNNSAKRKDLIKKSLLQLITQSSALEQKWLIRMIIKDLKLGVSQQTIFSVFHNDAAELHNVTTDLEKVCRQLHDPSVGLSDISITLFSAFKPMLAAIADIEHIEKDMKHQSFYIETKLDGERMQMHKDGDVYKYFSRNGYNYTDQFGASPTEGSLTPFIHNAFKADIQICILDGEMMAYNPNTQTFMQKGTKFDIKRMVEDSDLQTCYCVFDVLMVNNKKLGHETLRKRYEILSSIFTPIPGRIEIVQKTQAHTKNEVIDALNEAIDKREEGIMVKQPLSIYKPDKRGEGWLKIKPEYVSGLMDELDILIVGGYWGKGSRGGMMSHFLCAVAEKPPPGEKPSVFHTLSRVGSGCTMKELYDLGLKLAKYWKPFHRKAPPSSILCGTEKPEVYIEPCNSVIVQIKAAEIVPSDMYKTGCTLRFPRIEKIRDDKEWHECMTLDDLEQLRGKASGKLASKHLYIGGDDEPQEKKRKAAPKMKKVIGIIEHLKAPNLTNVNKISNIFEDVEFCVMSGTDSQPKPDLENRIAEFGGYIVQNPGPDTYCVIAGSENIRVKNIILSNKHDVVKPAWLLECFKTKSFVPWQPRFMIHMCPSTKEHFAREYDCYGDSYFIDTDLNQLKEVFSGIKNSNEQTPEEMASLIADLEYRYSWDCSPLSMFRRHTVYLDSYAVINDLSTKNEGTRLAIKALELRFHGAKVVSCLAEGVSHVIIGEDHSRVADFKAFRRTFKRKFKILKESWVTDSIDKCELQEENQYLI
Chain of human DNA ligase IV (Q13426 whole entry partner): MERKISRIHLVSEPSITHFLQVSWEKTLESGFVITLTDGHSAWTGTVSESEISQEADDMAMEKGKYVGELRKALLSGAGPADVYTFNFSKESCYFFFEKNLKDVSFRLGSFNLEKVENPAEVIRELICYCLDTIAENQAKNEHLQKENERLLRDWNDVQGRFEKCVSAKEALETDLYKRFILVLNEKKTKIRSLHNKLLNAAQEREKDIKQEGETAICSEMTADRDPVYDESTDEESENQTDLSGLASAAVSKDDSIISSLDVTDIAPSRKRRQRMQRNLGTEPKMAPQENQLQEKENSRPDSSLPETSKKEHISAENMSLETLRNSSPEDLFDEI
Text: (§1) The method for screening compounds comprises testing the compound for the ability to inhibit human DNA ligases I, III and IV with a high throughput fluorescence-based ligation assay. In this assay, phosphodiester bond formation covalently links together two oligonucleotides, one of which is a fluorescent donor AF488 that is 11 nucleotides from the 3′ terminus and the other contains a fluorescence acceptor and quencher, BHQ1 that is 15 nucleotides from the 5′ terminus. When these oligonucleotides are present in separate duplexes and in the same nicked or intact duplex, there is no significant quenching of fluorescence because the donor and acceptor are too far apart. As single-strands neither the AF488 oligonucleotide nor the BHQ1 oligonucleotides have significant secondary structure. However, when these oligonucleotides are ligated together, the resultant single strand forms a stable hairpin structure, in which the AF488 and BHQ1 groups are very close together, resulting in efficient intra-molecular quenching of fluorescence. Thus, in the DNA joining assay, the DNA substrate is denatured after incubation with the DNA ligase and then renatured in the presence of a 20-fold excess of an oligonucleotide that is identical to the ligated strand containing the fluorescent door and acceptor except that it lacks these modifications. Using this assay, DNA joining, which results in reduced fluorescence at 518 nm, can be measured rapidly, quantitatively and with high-throughput using a fluorescence plate reader.
(§2) Applicants developed a novel high throughput fluorescence-based ligation assay by modifying the sequence of the oligos to optimize hairpin formation by the single strand ligated product of the high throughput fluorescence-based ligation assay of Chen et al (22). […] Compound stock solutions, which were 10 mM in 0.5% DMSO, were diluted in 0.5% DMSO. Human DNA ligases I and III were assayed with a nicked DNA substrate whereas as the substrate for human DNA ligase IV was two oligonucleotide duplexes with short complementary single strand ends.

human DNA ligase III = target: T1, human DNA ligase III (Homo sapiens, UniProt P49916); assay: as above; type: biochemical; settings: for inhibition at 100 µM: read-out: % of inhibition @ 100 μM (Helen's data) hLigIII
T1 sequence (P49916 1-862 isoform P49916-4): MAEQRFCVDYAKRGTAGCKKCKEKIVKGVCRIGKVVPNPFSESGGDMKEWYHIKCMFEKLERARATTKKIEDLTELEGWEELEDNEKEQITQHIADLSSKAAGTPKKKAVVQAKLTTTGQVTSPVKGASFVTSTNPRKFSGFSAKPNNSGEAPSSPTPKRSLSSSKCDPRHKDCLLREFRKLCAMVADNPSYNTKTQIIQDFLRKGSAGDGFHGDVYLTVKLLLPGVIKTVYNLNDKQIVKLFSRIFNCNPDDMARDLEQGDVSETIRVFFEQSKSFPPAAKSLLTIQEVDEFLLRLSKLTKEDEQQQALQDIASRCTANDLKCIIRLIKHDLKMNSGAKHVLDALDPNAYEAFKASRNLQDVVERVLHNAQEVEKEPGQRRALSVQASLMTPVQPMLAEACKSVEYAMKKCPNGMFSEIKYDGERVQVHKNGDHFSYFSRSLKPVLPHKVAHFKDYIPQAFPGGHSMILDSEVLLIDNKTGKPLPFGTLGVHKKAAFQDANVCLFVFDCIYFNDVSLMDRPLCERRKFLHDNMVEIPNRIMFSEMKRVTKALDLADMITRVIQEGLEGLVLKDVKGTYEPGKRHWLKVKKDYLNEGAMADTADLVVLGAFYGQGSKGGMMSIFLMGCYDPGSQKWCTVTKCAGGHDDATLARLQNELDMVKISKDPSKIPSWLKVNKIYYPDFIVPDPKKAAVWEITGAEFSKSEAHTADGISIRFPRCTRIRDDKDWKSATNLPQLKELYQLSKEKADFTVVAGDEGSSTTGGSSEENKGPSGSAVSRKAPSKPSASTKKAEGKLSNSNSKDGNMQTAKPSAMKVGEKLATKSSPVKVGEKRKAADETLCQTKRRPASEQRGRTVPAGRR
Text: as §1, §2

MCF10A cells [1] = assay: MTT cell growth assay; type: cell-based, human; settings: for IC50: Homo sapiens, MCF-10A
Procedure: (§3) The activity of hits from the initial screen was further validated using the MTT assay. Briefly, MCF10A and HCT116 cells were seeded in 96 well plates at 300 and 1200 cells per well, respectively, and allowed to adhere overnight. The following day, serial dilutions of compounds in media were added to the cells in a final volume 200 μl. After incubation for 5 days, MTT reagent (3-(4,5-dimthylthiazol-2-yl)-2,5-diphenyltatrazolium) was added and incubation was continued for 4 h. Formazan crystals generated by reduction of the MTT reagent in mitochondria were solubilized with isopropanol prior to the measurement of absorbance at 560 nm wavelength in a plate reader.
To extend the results of the […] cell culture screening assay, a subset of compounds were tested in larger cultures. Different concentrations of Compounds 67 and 151 were added to asynchronous subconfluent populations of HCT116 and MCF10A cells. Asynchronous subconfluent populations of HCT116 and MCF10A cells were pre-treated with different concentrations of compound 64 prior to the addition of 3 aminobenzamide (2 mM) MMS (100 μM) or cis-platinum (1 μM). After incubation for 5 days, cell growth was measured by the MTT assay (16).

hLigI = target: T2, hLigI (Homo sapiens, UniProt P18858); assay: High-throughput fluorescence-based DNA joining (ligation) assay; type: biochemical; settings: for inhibition at 100 µM: read-out: % of inhibition @ 100 μM (Helen's data) hLigI
T2 construct: made in house
T2 sequence (P18858 whole entry): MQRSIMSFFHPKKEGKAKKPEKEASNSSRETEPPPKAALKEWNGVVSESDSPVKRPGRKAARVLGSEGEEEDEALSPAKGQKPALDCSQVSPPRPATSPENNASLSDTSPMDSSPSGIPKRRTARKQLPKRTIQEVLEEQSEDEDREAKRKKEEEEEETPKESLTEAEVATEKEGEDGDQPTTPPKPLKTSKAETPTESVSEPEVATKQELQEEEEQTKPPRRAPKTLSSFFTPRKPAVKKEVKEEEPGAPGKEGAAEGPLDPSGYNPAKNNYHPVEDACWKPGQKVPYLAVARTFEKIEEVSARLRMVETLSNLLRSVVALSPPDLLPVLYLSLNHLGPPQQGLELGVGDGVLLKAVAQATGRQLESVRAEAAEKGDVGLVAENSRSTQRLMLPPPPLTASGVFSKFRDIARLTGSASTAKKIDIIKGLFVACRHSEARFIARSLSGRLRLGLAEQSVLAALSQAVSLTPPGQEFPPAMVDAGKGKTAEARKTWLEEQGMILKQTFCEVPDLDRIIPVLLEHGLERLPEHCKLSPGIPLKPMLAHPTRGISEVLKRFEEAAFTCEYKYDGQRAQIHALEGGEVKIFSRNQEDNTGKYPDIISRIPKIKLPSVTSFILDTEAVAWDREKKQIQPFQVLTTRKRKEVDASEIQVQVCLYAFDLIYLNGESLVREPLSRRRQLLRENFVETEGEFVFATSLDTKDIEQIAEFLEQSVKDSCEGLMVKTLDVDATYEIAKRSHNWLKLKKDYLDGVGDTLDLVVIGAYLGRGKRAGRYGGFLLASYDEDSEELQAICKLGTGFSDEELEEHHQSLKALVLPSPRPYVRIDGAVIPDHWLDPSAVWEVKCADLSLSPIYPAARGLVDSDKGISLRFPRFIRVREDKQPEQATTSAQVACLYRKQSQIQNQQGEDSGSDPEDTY
Procedure: Candidate ligase inhibitors identified by CADD were assayed for their ability to inhibit hLigI and T4 DNA ligase using a high-throughput, fluorescence energy transfer-based DNA joining assay (22). Duplicate reactions (30 μL) containing 10 pmol of nicked DNA substrate and either 0.25 pmol of hLigI or 10 units of T4 DNA ligase were incubated in the presence or absence of 100 μmol/L of the putative inhibitor. DNA binding by the candidate DNA ligase inhibitors was measured by displacement of ethidium bromide from DNA as previously described (30).
as §1, §2

HCT116 cells = assay: MTT cell growth assay; type: cell-based, human; settings: Homo sapiens, HCT-116
Procedure: as §3
After incubation for 5 days, cell growth was measured by the MTT assay (16).

MCF10A cells [2] = assay: Screen for potentiation of DNA damaging agents (MMS, camptothecin, cis-platinum, 3 aminobenzamide, ionizing radiation); type: cell-based, human; settings: compound alone vs combination with MMS (100 μM); 1 = no sensitization
Text: The 192 human DNA ligase inhibitors were screened in parallel for effects on proliferation and the ability to potentiate the effects of several DNA damaging agents using two cell human lines, a colon cancer line HCT116 and a normal breast epithelial cell line MCF10A using a Biomek FX Laboratory Automation Workstation as described (23). The DNA damaging agents used, methyl methanesulfonate (MMS), camptothecin, cis-platinum, 3 aminobenzamide and ionizing radiation, are representatives of classes of agents used to treat cancer. Briefly, HCT116 and MCF10A cells were plated in 96 well plates such that the cultures were about 80% confluent after 5 days incubation. Compounds were added to the cultures at either 15 μM or 50 μM 1 day after plating. After incubation for 3 days, cell lysed in a solution containing 1.2% Igepal CA-630 and SYBR green that stains DNA (1:1000, Molecular Probes, Eugene, Oreg.). Subsequently, fluorescence was measured per well. The studies with DNA damaging agents were performed as follows. […] Cultures were incubated for 3 days and then treated as above.

MCF10A cells [3] = assay: Cell proliferation screen (SYBR Green, Biomek FX); type: cell-based, human; settings: 50 μM; percentage of values obtained with DMSO alone
Procedure: The ability of the compounds identified by CADD to inhibit proliferation of normal mammary epithelial MCF10A cells and colon carcinoma HCT116 cells was determined using a Biomek FX Laboratory Automation Workstation (Beckman Coulter, Inc., Fullerton, Calif.). On day 0, 20 μl of complete medium containing the appropriate number of cells (150-300) was plated per well of a 384-well tissue plate (Fisher Scientific, Hampton, N.H.) and incubated overnight at 37° C. with 5% CO2 and 90% humidity. Next day, day 1, compounds were prepared by serial dilution with complete medium to yield the concentration 100 μM, and 20 μl was added to each well containing 20 μl of medium and cells yielding the final concentration 50 μM in 40 μl volume. Plates were incubated for additional 3 days (days-2-5) until control cells (0.5% DMSO) reached ˜70-80% confluency. On day 6, 40 μl of lysis/detection solution containing 1.2% Igepal CA-630 (Sigma) and a 1:1000 dilution of SYBR Green I nucleic acid stain (Molecular Probes, Eugene, Oreg.) was added to each well. Following an overnight incubation at 37° C., total fluorescence was measured using a Fluorostar Galaxy plate reader with a 485 nm excitation filter and 520 nm emission filter set (BMG Labtech, Inc., Durham, N.C.). Data was exported to a custom program that determined growth inhibition by dividing each individual fluorescence value by the average of fluorescence values obtained with cells treated with DMSO alone.
The 192 human DNA ligase inhibitors were screened in parallel for effects on proliferation and the ability to potentiate the effects of several DNA damaging agents using two cell human lines, a colon cancer line HCT116 and a normal breast epithelial cell line MCF10A using a Biomek FX Laboratory Automation Workstation as described (23). The DNA damaging agents used, methyl methanesulfonate (MMS), camptothecin, cis-platinum, 3 aminobenzamide and ionizing radiation, are representatives of classes of agents used to treat cancer. Briefly, HCT116 and MCF10A cells were plated in 96 well plates such that the cultures were about 80% confluent after 5 days incubation. Compounds were added to the cultures at either 15 μM or 50 μM 1 day after plating. After incubation for 3 days, cell lysed in a solution containing 1.2% Igepal CA-630 and SYBR green that stains DNA (1:1000, Molecular Probes, Eugene, Oreg.). Subsequently, fluorescence was measured per well. The studies with DNA damaging agents were performed as follows. […] For ionizing radiation, cells were pre-incubated with the compounds at 50 μM for 1 hour prior to exposure to 2 gray of ionizing radiation. Cultures were incubated for 3 days and then treated as above.

[4] = sections 'high concentrations (~50 μM)' and 'active in vitro that decreased cell growth', same figures given in μM elsewhere in Table 6, read-out: IC50 MCF10A (head without unit)

In the case of `CC(C(=O)Nc1cccc(C(=O)O)c1)N(C)S(=O)(=O)c1ccccc1` (stereo not drawn) [Compound 199], the “% of inhibition @ 100 μM (Helen's data) hLigIV” value (human DNA ligase IV) is reported as “NI (NI- no inhibition)”, the “% of inhibition @ 100 μM (Helen's data) hLigIII” value (human DNA ligase III; 100 μM) is reported as “NI (NI- no inhibition)” and the “inhibition of cell proliferation of MCF10A at 50 μM (MTT)” value (MCF10A cells [1]; 50 μM, numbers printed under MCF10A in r92-r106: 79, 124, 130, 193, 197, 198, 199 (30%), 214, 221) is reported as 199^t (30%). The “% of inhibition @ 100 μM (Helen's data) hLigI” value (hLigI; 100 μM) was “NI (NI- no inhibition)”.

For `C=CCN1C(=O)/C(=C\c2ccccc2C(=O)O)SC1=S` [Compound 159], the IC50 (HCT116 cells; cell growth, compound alone, read-out: IC50 (μM) HCT116) was 50 µM, the IC50 (HCT116 cells; sections 'high concentrations (~50 μM)' and 'active in vitro that decreased cell growth', same figures given in μM elsewhere in Table 6, read-out: IC50 HCT116 (head without unit)) was no less than 50 µM and the “MMS: Ratios of IC50 MCF10A” value (MCF10A cells [2]) was “Ni”. For the same molecule, the inhibition at 100 µM (human DNA ligase IV) was less than 20%, the inhibition at 100 µM (human DNA ligase III) was less than 20% and the IC50 (MCF10A cells [1]; [4]) was greater than 50 µM. The inhibition at 100 µM (hLigI; 100 μM) was less than 20%.

With `O=C1N/C(=N\c2ccccc2)S/C1=C/c1ccc(-c2cccc(C(=O)O)c2)o1` [Compound 202] the “Growth_Inh % (50 μM) MCF10A” value (MCF10A cells [3]) was 50% and the “inhibition of hLigI (DNA ligase I), in words” value (hLigI; in vitro screen, 100 μmol/L, the 15 hLigI inhibitors inhibited by >50%) was “inhibited hLigI”.

Work on `O=c1[nH]cc(/C=N/Nc2ncnc3[nH]cnc23)c(=O)[nH]1` [Compound 208] yielded an inhibition at 100 µM (human DNA ligase IV) of less than 20%, an inhibition at 100 µM (human DNA ligase III) of 24% and an IC50 (MCF10A cells [1]; cell growth, compound alone, read-out: IC50 (μM) MCF10A) of 40 µM. The IC50 (MCF10A cells [1]; [4]) was 40 µM and the inhibition at 100 µM (hLigI; 100 μM) was 21%.
